Counter-ions that a name gives are not always drawn.

The test system of one series is gastric lesion. As to the kind of experiment: rat gastric lesion test. It counts as in vivo, rats. As to the method:
The rat gastric lesion test, described by Kitagawa et al, J. Phirmacol. Exp. Ther., 253:1133-1137 (1990), and Al-Ghamdi et al, J. Int. Med. Res., 19:2242 (1991), was used to evaluate the activity of compounds to produce gastric lesion. Male Sprague Dawley rats (Charles River Laboratories, Wilmington, Mass.) weighing 230-250 g were used for the experiments. The rats were housed with laboratory chow and water ad libitum prior to the study. The rats were fasted for 24 hours with free access to water and then dosed by oral gavage with vehicle or with test compounds given at a volume of 0.5 mL/100 g. Food was withheld for 18 hours after the initial dosing. Rats were euthanized by CO2 eighteen hours after dosing. The stomachs were dissected along the greater curvature, washed with a directed stream of 0.9% saline and pinned open on a sylgard based petri dish for examination of the hemorrhagic lesion. Gastric lesion score was expressed in mm and calculated by summning the length of each lesion.

Series [1] deals with phenylbenzoquinone-induced writhing. The experiment in a line: phenylbenzoquinone-induced writhing test in mice (analgesic activity). The series is classed as in vivo. To be noted: ratio of activity relative to the parent NSAID; oral gavage 1 hour prior to i.p. phenylbenzoquinone; male CD-1 mice. The method, then:
The phenylbenzoquinone-induced writhing test in mice was used to measure analgesic activity. The ability of the compounds to inhibit phenylbenzoquinone-induced writhing in mice was measured using the method of Siegmund et al, Proc. Soc. Exp. Biol. Med. 95: 729-731, 1957. Male CD-1 mice (Charles River Laboratories, Wilmington, Mass.) weighing 20-25 g were fasted overnight. Vehicle or compounds were administered by oral gavage 1 hour prior to i.p. injection of 2 mg/kg of phenylbenzoquinone. Five minutes after the i.p. injection of phenylbenzoquinone, the number of writhes in a 5 minute period was counted.
In general terms: In writhing tests, fewer writhes than in controls are read as antinociception.

For series [2], the system named is carrageenan rat paw edema. The experiment in a line: rat paw edema test (antiinflammatory activity). To be noted: ratio of activity relative to the parent NSAID; oral gavage one hour prior to carrageenan; paw volume three hours later; male Sprague-Dawley rats. The series is classed as in vivo. As to the method: The rat paw edema test was used to measure antiinflammatory activity. The rat paw edema test was performed according to the method of Winter et al, Proc. Soc. Exp. Biol. Med. 111: 544-547, 1962. Male Sprague-Dawley rats (250-275 g) were fasted overnight and dosed by oral gavage with vehicle or suspensions of compound one hour prior to the subplantar injection of 50 μl of 1% suspension of carrageenan. Three hours later, the paw volume was measured and compared with the initial volume measured immediately after carrageenan injection.

The mark [3] stands for this setting: 100 μmole/Kg, ratio of activity relative to the parent NSAID, oral gavage, fasted rats, eighteen hours after dosing.
Setting [4] is: ratio of activity relative to the parent NSAID, oral gavage, fasted rats, eighteen hours after dosing.

As to `COc1ccc2c(c1)c(CC(=O)OCCC1(SN=O)CCN(C)CC1)c(C)n2C(=O)c1ccc(Cl)cc1.O=C(O)CC(O)(CC(=O)O)C(=O)O` [Example 17, 2-[1-Methyl-4-(nitrosothio)-4-piperidyl]ethyl 2{1-[(4-chlorophenyl)carbonyl]-5-methoxy-2-methylindol-3-yl}acetate citrate], the “Relative Activity Gastric Lesion” value in the series on gastric lesion (setting [3]) was <0.07 (100 μmole/Kg). Besides, in series [1], the “Relative Activity Analgesia” value amounted to 1.
In the case of `CC(C)(CN1CCN(CCOC(=O)Cc2ccccc2Nc2c(Cl)cccc2Cl)CC1)SN=O.O=C(O)CC(O)(CC(=O)O)C(=O)O` [Example 8, 2-{4-[2-Methyl-2-(nitrosothio)propyl]piperazinyl}ethyl 2-{2-[(2,6-dichlorophenyl)amino]phenyl}acetate citrate], in the series on gastric lesion (setting [4]), the “Relative Activity Gastric Lesion” value was determined as 0.04. The “Relative Activity Antiinflammation” value in series [2] was 1.4. Further, the “Relative Activity Analgesia” value in series [1] amounted to 1.2.
With `CN1CCC(CCOC(=O)Cc2ccccc2Nc2c(Cl)cccc2Cl)(SN=O)CC1` [Example 13, 2-[1-Methyl-4-(nitrosothio)-4-piperidyl]ethyl 2-{2-[(2,6-dichlorophenyl)amino]phenyl}acetate citrate], the “Relative Activity Gastric Lesion” value with gastric lesion (setting [3]) was 0.1 (100 μmole/Kg). In addition, the “Relative Activity Antiinflammation” value in series [2] came to 1.
As to `CC1(SN=O)CCN(CCOC(=O)Cc2ccccc2Nc2c(Cl)cccc2Cl)CC1.Cl` [Example 1, 2-[4-Methyl-4-(nitrosothio)piperidyl]ethyl 2-{2-[(2,6-dichlorophenyl)amino]phenyl}acetate hydrochloride], in the series on gastric lesion (setting [4]), the “Relative Activity Gastric Lesion” value came out at 0.1. Also, in series [2], the “Relative Activity Antiinflammation” value worked out at 1.2. In series [1], the “Relative Activity Analgesia” value came out at 1.5.
For the compound `CN(CCSC(=O)Cc1ccccc1Nc1c(Cl)cccc1Cl)CC(C)(C)SN=O.Cl` [Example 31, 2-{2-[(2,6-Dichlorophenyl)amino]phenyl}-1-(2-{methyl[2-methyl-2-(nitrosothio)propyl]amino}ethylthio)ethan-1-one hydrochloride], the “Relative Activity Gastric Lesion” value in the series with gastric lesion (setting [3]) is reported as 0.02 (100 μmole/Kg). For the same compound, the “Relative Activity Antiinflammation” value in series [2] is on record as 1. Further, the “Relative Activity Analgesia” value in series [1] is reported as 1.
`O=C(O)Cc1ccccc1Nc1c(Cl)cccc1Cl` [Diclofenac, diclofenac, reference compound]: the “Relative Activity Gastric Lesion” value with gastric lesion (setting [4]) stood at 1. Further, the “Relative Activity Antiinflammation” value in series [2] is 1. Moreover, the “Relative Activity Analgesia” value in series [1] amounted to 1.
As for `CN(Cc1ccc(OC(=O)Cc2ccccc2Nc2c(Cl)cccc2Cl)cc1)CC(C)(C)SN=O` [Example 33, 4-({Methyl[2-methyl-2-(nitrosothio)propyl]amino}methyl)phenyl 2-{2-[(2,6-dichlorophenyl)amino]phenyl}acetate], the “Relative Activity Antiinflammation” value in series [2] came to 1. In addition, in series [1], the “Relative Activity Analgesia” value is 1.
Regarding `COc1ccc2cc([C@H](C)C(=O)OCCC3(SN=O)CCN(C)CC3)ccc2c1.O=C(O)CC(O)(CC(=O)O)C(=O)O` [Example 15, 2-[1-Methyl-4-(nitrosothio)-4-piperidyl]ethyl (2S) 2-(6-methoxy(2-naphthyl)) propanoate citrate], the “Relative Activity Gastric Lesion” value in the series with gastric lesion (setting [3]) is recorded as 0.1 (100 μmole/Kg). The “Relative Activity Antiinflammation” value in series [2] was found to be 1. The “Relative Activity Analgesia” value in series [1] is given as 1.
As to `COc1ccc2cc([C@H](C)C(=O)OC[C@@H]3NC(=O)[C@@H](C(C)(C)SN=O)NC3=O)ccc2c1` [Example 47, {(2S,5S)-5-[1-Methyl-1-(nitrosothio)ethyl]-3,6-dioxopiperazin-2-yl}methyl (2S)-2-(6-methoxy(2-naphthyl))propanoate], the melting point (commonly the temperature of the solid-liquid transition) was > 180 °C (dec.).
Turning to `CN(CCCOC(=O)Cc1ccccc1Nc1c(Cl)cccc1Cl)CC1(SN=O)CCCCC1` [Example 4, 3-{Methyl{[(nitrosothio)cyclohexyl]methyl}amino)propyl 2-{2-[(2,6-dichlorophenyl)amino]phenyl}acetate], the “Relative Activity Gastric Lesion” value with gastric lesion (rat, in vivo, po) turned out to be 0.01. The “Relative Activity Antiinflammation” value in series [2] is 1.3. In series [1], the “Relative Activity Analgesia” value was 0.9.
For the compound `Cl.O=NSC1(CCOC(=O)Cc2ccccc2Nc2c(Cl)cccc2Cl)CCNCC1` [Example 6, 2-[4-(Nitrosothio)-4-piperdyl]ethyl 2-{2-[(2,6-dichlorophenyl)amino]phenyl}acetate hydrochloride], the “Relative Activity Gastric Lesion” value in the series with gastric lesion (setting [4]) is 0.02.
Take `COc1ccc2cc([C@H](C)C(=O)OCCCN3C(=O)OC[C@H]3C(C)(C)SN=O)ccc2c1` [Example 44, 3-{(4S)-4-[1-Methyl-1-(nitrosothio)ethyl]-2-oxo-1,3-oxazolidin-3-yl}propyl (2S)-2-(6-methoxy(2-naphthyl))propanoate]: the melting point lay within 116 to 117 °C.
Turning to `CN(CCOC(=O)Cc1ccccc1Nc1c(Cl)cccc1Cl)CC1(SN=O)CCCCC1.Cl` [Example 2, 2-(Methyl{[(nitrosothio)cyclohexyl]methyl}amino)ethyl 2-{2-[(2,6-dichlorophenyl)amino]phenyl}acetate hydrochloride], the “Relative Activity Gastric Lesion” value with gastric lesion (setting [4]) was 0.02. In addition, in series [2], the “Relative Activity Antiinflammation” value was determined as 1.2. Besides, in series [1], the “Relative Activity Analgesia” value is 1.
Turning to `COc1ccc2cc([C@H](C)C(=O)OCCN(C)CC3(SN=O)CCN(C)CC3)ccc2c1.Cl` [Example 22, 2-(Methyl{[1-methyl-4-(nitrosothio)(4-piperidyl)]methyl}amino)ethyl (2S)-2-(6-methoxy(2-naphthyl))propanoate hydrochloride], the “Relative Activity Gastric Lesion” value in the series on gastric lesion (setting [3]) is 0.1 (100 μmole/Kg). Moreover, the “Relative Activity Antiinflammation” value in series [2] came out at 1. Further, the “Relative Activity Analgesia” value in series [1] came out at 1.
`CN1CCC(CCOC(=O)Cc2ccccc2Nc2c(Cl)cccc2Cl)(SN=O)CC1` (as salt: citrate) [Example 13, 2-[1-Methyl-4-(nitrosothio)-4-piperidyl]ethyl 2-{2-[(2,6-dichlorophenyl)amino]phenyl}acetate citrate] yielded a melting point of 130 °C.
Turning to “2-{2-[(2,6-Dichlorophenyl)amino]phenyl}-1-[2-(methyl{[(nitrosothio) cyclohexyl]methyl}amino)ethylthio]ethan-1-one [Example 32]”, the “Relative Activity Analgesia” value in series [1] was found to be 1.
As for `CN1CCC(CN(C)CCCOC(=O)Cc2ccccc2Nc2c(Cl)cccc2Cl)(SN=O)CC1` [Example 12, 3-(Methyl{[1-methyl-4-(nitrosothio)(4-piperidyl)]methyl}amino)propyl 2-{2-[(2,6-dichlorophenyl)amino]pheny}acetate], in the series with gastric lesion (setting [4]), the “Relative Activity Gastric Lesion” value amounted to 0.06.
